These results are taken from patent publication US20260042755A1, “GPR6 INVERSE AGONISTS” (MapLight Therapeutics, Inc., priority 2022, published 2026).

Common to all, as to assay type: cell-based
One assay concerns the target T1, GPR3 (Homo sapiens, UniProt P46089).
T1 construct: expressed in transfected cells; host or cells: CHO cells
Nature of the assay: GPR3 antagonist functional cAMP assay (LANCE Ultra cAMP TR-FRET, CHO cells stably expressing GPR3). The essentials: (§1)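 Stable CHO-GPR6 or CHO-GPR3 cells (10,000/well) in Krebs-Ringer buffer with 0.1% BSA and 150 μM Ro 20-1724 were exposed to compounds for 45 min at 37° C (0.1% DMSO). cAMP read by LANCE Ultra TR-FRET; IC50 from 4-parameter fit normalized to DMSO and reference compounds.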

A further assay deals with T2, hERG (Homo sapiens, UniProt Q12809).
T2 construct: expressed in transfected cells; host or cells: HEK293
As to the kind of experiment: hERG assay (whole-cell manual patch clamp, stably-transfected HEK293/hERG cells). The settings on record: tail current, test concentrations 0.1-30 μM, read-out: hERG Assay GMean IC50. Here is the method: Stably-transfected HEK293/hERG cells were seeded on poly-ornithine coated glass coverslip and incubated 3-24 h in 35 mm dishes before transferring to the recording chamber. The recording chamber on the stage of a Nikon inverted microscope is continuously perfused with extracellular solution (1-1.5 ml/min). Electrodes were pulled, polished and filled with intracellular solution (tip resistance ˜3-5MΩ). After establishing a tight seal (resistances 1GΩ) between pipette tip and cell membrane, a brief suction is applied to rupture the patched membrane to establish the whole-cell patch clamp configuration. Cells are voltage clamped at −80 mV. The cell was first depolarized to +40 mV for 2s to activate hERG current, and then clamped to −40 mV for 3s to record a tail current. Test articles in various concentrations controlled by a voltage command 8 pinch valve superfusion system were delivered to the proximity of the test cell to record hERG current changes under different conditions with recording done within 30 min.
Intracellular solution (in mM): 130 KCl, 1.0 MgCl2, 5.0 EGTA, 10 HEPES, 5.0 Mg-ATP; adjust pH to 7.25 with 1M KOH; osmolarity approximately at 280 mOsm. Extracellular solution (in mM): 137 NaCl, 1.8 CaCl2, 1.0 MgCl2, 4.0 KCl, 10 Glucose, 10 HEPES; adjust pH to 7.4 with 1 M NaOH; osmolarity approximately at 295 mOsm. Original compound was dissolved in 100% DMSO, then serial diluted with DMSO to respective 1000× of test concentration to make DMSO sub-stocks. The DMSO sub-stocks were diluted 1000 fold to testing solutions (0.1, 0.3, 1, 3, 10, and 30 μM) using extracellular solution. Rapid exposure to test compound was achieved by utilizing a multichannel solenoid-operated flow system. Testing compounds were sequentially applied in increasing order of concentrations after initial application of vehicle solution on EPC-10 manual patch clamping device with the following: • Amplifier: HEKA EPC-10 USB • Nikon Ti-S Inverted Microscope • MP-285/R micromanipulator system • DAD-8VCPP voltage command Pinch valve superfusion system • TMC Shock Absorption Platform • Peristaltic Pump • Sutter Puller • Vapor pressure osmometer • Temperature controller

The target of the next assay is T3, GPR6 (Homo sapiens, UniProt P46095).
T3 construct: expressed in transfected cells; host or cells: CHO cells
Nature of the assay: GPR6 antagonist functional cAMP assay (LANCE Ultra cAMP TR-FRET, CHO cells stably expressing GPR6). Put shortly: as §1

[1] abbreviates: CHO cells stably expressing GPR3, cAMP assay.
[2] abbreviates: CHO cells stably expressing GPR6, cAMP assay.
Setting [3] is: CHO cells stably expressing GPR3, cAMP assay (Example 24).
Where [4] appears, read: CHO cells stably expressing GPR6, cAMP assay (Example 24).
Setting [5] is: procedure as described in Example 24.

T2 sequence (Q12809 whole entry): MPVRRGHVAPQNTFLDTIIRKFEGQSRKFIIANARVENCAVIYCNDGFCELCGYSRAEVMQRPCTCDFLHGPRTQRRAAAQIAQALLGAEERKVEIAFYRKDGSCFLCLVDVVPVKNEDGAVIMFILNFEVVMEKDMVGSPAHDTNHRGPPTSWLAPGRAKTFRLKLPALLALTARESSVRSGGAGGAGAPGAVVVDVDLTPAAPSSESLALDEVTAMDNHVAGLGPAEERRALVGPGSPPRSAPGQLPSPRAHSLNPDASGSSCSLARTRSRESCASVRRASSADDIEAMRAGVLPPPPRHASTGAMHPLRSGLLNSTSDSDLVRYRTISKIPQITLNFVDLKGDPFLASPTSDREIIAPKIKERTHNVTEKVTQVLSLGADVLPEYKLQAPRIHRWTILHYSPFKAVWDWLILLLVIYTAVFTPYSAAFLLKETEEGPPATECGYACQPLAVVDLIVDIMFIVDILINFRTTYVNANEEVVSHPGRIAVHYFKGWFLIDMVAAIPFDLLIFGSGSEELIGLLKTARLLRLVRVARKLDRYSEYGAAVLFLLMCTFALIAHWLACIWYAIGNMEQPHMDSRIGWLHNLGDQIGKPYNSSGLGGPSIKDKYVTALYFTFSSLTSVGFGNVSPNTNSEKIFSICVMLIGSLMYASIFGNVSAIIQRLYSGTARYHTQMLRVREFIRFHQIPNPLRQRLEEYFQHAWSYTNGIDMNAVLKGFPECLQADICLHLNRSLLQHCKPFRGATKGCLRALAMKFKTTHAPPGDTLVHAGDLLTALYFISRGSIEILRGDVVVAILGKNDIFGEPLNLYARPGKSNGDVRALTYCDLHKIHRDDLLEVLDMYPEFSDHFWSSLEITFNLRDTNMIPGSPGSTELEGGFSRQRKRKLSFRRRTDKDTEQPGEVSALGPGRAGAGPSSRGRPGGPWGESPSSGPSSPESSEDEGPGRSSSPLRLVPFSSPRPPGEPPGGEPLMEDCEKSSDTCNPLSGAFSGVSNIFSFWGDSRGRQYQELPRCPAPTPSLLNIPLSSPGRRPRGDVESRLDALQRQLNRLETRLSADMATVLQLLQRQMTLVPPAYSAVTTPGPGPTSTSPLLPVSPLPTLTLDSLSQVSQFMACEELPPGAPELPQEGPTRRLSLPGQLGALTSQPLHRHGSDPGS
T1 sequence (P46089 whole entry, species assumed): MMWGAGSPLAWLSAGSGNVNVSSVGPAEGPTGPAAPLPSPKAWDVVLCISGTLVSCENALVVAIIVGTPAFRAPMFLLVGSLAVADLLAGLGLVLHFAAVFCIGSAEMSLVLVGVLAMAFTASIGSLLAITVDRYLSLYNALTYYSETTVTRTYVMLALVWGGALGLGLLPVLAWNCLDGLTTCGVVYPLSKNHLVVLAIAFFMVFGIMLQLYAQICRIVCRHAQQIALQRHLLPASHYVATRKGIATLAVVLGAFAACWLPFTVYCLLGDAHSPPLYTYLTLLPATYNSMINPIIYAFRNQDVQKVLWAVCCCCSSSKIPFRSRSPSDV
T3 sequence (P46095 whole entry): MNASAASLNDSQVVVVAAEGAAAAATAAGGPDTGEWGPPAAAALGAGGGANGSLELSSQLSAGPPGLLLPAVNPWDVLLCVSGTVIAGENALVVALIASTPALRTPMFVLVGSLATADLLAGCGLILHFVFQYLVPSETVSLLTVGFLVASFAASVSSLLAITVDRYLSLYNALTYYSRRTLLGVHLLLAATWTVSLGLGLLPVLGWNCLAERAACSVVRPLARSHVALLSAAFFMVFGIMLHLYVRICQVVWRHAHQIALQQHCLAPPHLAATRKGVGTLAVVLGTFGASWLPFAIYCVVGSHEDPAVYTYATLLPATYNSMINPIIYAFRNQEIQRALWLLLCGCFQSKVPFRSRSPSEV

For the compound `CC(C)(O)[C@](C)(O)c1cc2nc(-c3cnn(CF)c3)c(N3CCN(Cc4ccccc4F)CC3)nc2cn1` (single isomer, unassigned) [Compound 716], the figures for the 50% inhibitory concentration (IC50) against GPR3 (procedure of Example 24), at hERG and against GPR6 (procedure of Example 24) were 1000 to 30000 nM, 24300 nM and 100 to 1000 nM, respectively.

As for `CC(C)(O)C(O)c1cc2nc(-c3cnn(CF)c3)c(N3CCN(Cc4ccccc4F)CC3)nc2cn1` (single isomer, unassigned) [Compound 707], the IC50 against GPR3 (procedure of Example 24) was 1000 to 30000 nM; at hERG it was more than 30000 nM; at GPR6 (procedure of Example 24), 100 to 1000 nM.

As for `CCn1cc(-c2nc3cnc([C@H](O)C(C)(C)O)cc3nc2N2CCN(Cc3ccc(F)cc3F)CC2)cn1` (single isomer, unassigned) [Compound 575], the figures for the IC50 at GPR3 (setting [1]), on hERG and against GPR6 (setting [2]) were 1000 to 30000 nM, 21700 nM and less than 100 nM, respectively.

Regarding `CC(C)(O)[C@@H](O)c1cc2nc(N3CCN(Cc4ccc(F)cc4F)CC3)c(-c3cnn(C4CC4)c3)nc2cn1` (single isomer, unassigned) [Compound 577], the IC50 is 1000 to 30000 nM against GPR3 (setting [1]), 13600 nM on hERG and 100 to 1000 nM at GPR6 (setting [2]).

On to `CNc1cncc(-c2nc3c(nc2N2CCC(Oc4ccc(F)cc4F)CC2)CCN(C(C)=O)C3)n1` [Compound 329, 1-{2-[4-(2,4-difluorophenoxy)piperidin-1-yl]-3-[6-(methylamino)pyrazin-2-yl]-5H,6H,7H,8H-pyrido[3,4-b]pyrazin-6-yl}ethan-1-one], for which the concentration for half-maximal inhibition (IC50) on GPR3 (procedure of Example 24) is 100 to 1000 nM; against GPR6 (procedure of Example 24), less than 100 nM.

In the case of `O=S(=O)(C1COC1)N1CCc2nc(N3CCC(Oc4ccc(F)cc4F)CC3)c(-c3cn[nH]c3)nc2C1` [Compound 207, 4-(2,4-difluorophenoxy)-1-[6-(oxetane-3-sulfonyl)-3-(1H-pyrazol-4-yl)-5H,6H,7H,8H-pyrido[3,4-b]pyrazin-2-yl]piperidine], the IC50 on GPR3 (setting [3]) and against GPR6 (setting [4]) was 1000 to 30000 nM each time.

Turning to `CC(=O)N1CCc2nc(N3CCC(Oc4ccc(F)cc4F)CC3)c(-c3ncc[nH]3)nc2C1` [Compound 40, 1-(2-(4-(2,4-difluorophenoxy)piperidin-1-yl)-3-(1H-imidazol-2-yl)-7,8-dihydropyrido[3,4-b]pyrazin-6(5H)-yl)ethan-1-one], the IC50 on GPR3 (setting [5]) and on GPR6 (setting [5]) was 1000 to 30000 nM each time.

As for `CCc1nccc(-c2nc3c(nc2N2CCC(Oc4ccc(F)cc4F)CC2)CCN(C(C)=O)C3)n1` [Compound 479, 1-{2-[4-(2,4-difluorophenoxy)piperidin-1-yl]-3-(2-ethylpyrimidin-4-yl)-5H,6H,7H,8H-pyrido[3,4-b]pyrazin-6-yl}ethan-1-one], the IC50 on GPR3 (setting [3]) and against GPR6 (setting [4]) was 1000 to 30000 nM each time.
